This note sets out measurements from patent publication US8299048B2, “Hexahydrocyclopentyl[f]indazole sulfonamides and derivatives thereof as selective glucocorticoid receptor modulators” (Merck Sharp & Dohme Corp., priority 2008, dated 2012).

SMILES strings stand for the structures. Like-named read-outs stand apart in the source and are kept apart here.

The assay has as its target T1, human GR (Homo sapiens, UniProt P04150).
T1 sequence (P04150 1-777): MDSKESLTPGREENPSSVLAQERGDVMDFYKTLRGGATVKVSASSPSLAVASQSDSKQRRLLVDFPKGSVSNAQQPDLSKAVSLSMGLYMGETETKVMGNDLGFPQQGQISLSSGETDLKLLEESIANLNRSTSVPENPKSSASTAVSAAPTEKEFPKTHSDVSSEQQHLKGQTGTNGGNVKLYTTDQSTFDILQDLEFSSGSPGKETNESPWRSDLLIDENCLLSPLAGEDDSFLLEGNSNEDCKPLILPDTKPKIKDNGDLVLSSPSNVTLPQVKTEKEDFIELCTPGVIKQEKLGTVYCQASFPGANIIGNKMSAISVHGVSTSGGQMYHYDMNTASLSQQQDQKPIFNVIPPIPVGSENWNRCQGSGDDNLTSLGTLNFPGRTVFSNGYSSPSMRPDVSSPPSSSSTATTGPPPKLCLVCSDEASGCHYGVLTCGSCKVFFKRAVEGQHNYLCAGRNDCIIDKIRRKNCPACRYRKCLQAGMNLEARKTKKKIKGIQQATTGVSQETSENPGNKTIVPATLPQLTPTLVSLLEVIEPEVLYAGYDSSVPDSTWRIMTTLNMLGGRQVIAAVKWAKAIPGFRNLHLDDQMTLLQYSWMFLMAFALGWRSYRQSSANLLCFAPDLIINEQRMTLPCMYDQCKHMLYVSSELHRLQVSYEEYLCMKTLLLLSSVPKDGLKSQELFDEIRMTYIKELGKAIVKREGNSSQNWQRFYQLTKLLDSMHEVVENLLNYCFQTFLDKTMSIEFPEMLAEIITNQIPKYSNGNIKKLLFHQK
Kind of assay: Transrepression Assay (GITAR), TNFα-β-lactamase reporter in U937 cells. The class given is cell-based. Also on record: U937 cells contain an endogenous glucocorticoid receptor (GR); endogenous in cells; host or cells: U937 cells stably transfected with the TNF-alpha promoter/beta-lactamase reporter. As to conditions: for GITAR > GRAMM % SEP: GITAR Emax minus GRAMMER Emax; for EC50: U937 cells, inflection point, read-out: Transrepression U937 Cells GITAR IP. From the text: This assay assesses the ability of test compounds to control transcription from the TNFα-β-lactamase reporter gene in U937 cells, a human myelomonocytic leukemia cell line that naturally expresses the human GR. The assay measures compound dependent-repression of the TNFa promoter linked to a reporter gene.
The human U937 cells that had been stablely transfected with the TNF-α promoter driving β-lactamase are used for this assay. U937 cells contain an endogenous glucocorticoid receptor (GR). Cells are maintained in RPMI 1640 Growth medium (Gibco Cat#11875-093) containing 25 mM HEPES, 10% FBS, 2 mM L-Glutamine, 1 mM Sodium pyruvate, 25 μg/ml Gentamicin (Gibco Cat#15710-064), 1:1000 2-Mercaptoethanol (Gibco Cat#21985-023) and 0.8 mg/ml G418 (Gibco Cat#10131-027). The density of the cells in the flask needs to be about 1×10^6−3×10^6/ml at the time of harvest. Usually, the cells are split to 1.2˜1.4×10^5/ml (1:10) 3 days prior to the assay. 50,000 cells/well are plated in 96 well black-walled plates the day of assay. Test compounds are added 10 μL/well, and cells are incubated at 37° C. for 30˜45 min. For assaying compounds, first dilute 1:10 in DMSO to make 1 mM, then further dilute 1:100 in medium to make 10× stock prior to adding to the cells. Add 50 ng/mlPMA (Sigma, cat# P8139) 10 μL/well to a final concentration 5 ng/ml, and 1 μg/ml LPS (Sigma, cat# L4130) 10 μL/well to a final concentration 100 ng/ml. Incubate cells at 37° C. overnight for ˜18 hr. PMA is stored frozen as 100 μg/ml stock in DMSO. Dilute 1:10 in DMSO for a working stock of 10 μg/ml and store at −20 C. For assaying, dilute the 10 μg/ml working stock 1:200 in medium to make a 10× solution (50 ng/ml). Store frozen LPS at 1 mg/ml in PBS, dilute 1:1000 in medium to make 10× (1 μg/ml) for the assay. Add 6× loading buffer (CCF2-AM) 20 μL/well, and incubate at room temperature for 70˜90 min. […] The activity repressed by 100 nM dexamethasone alone is set as 100% activity.

Setting [1] is: U-937, U937 cells, maximum activity, read-out: Transrepression U937 Cells GITAR Emax.
Where [2] appears, read: U-937, activity repressed by 100 nM dexamethasone alone set as 100%, read-out: maximal activity in the transrepression (GITAR) assay.

On to `C[C@]12Cc3cnn(-c4ccc(F)cc4)c3C=C1CC[C@@H]2CN(CC1CC1)S(=O)(=O)c1cc(C(F)(F)F)ccc1Cl` [Example 5, 2-chloro-N-(cyclopropylmethyl)-N-{[(4αR,5S)-1-(4-fluorophenyl)-4α-methyl-1,4,4α,5,6,7-hexahydrocyclopenta[f]indazol-5-yl]methyl}-5-(trifluoromethyl)benzenesulfonamide], for which the “GITAR > GRAMM % SEP” value was 16.2% and the EC50 came out at 223 nM. Also, the Emax under setting [1] came out at 19.2%. Further, the Emax under setting [2] was more than 5%.
Turning to `CC(=O)Nc1ccc(S(=O)(=O)N(CC2CC2)C[C@H]2CCC3=Cc4c(cnn4-c4ccc(F)cc4)C[C@@]32C)cc1` [Example 6, N-{4-[((cyclopropylmethyl){[(4αR,5S)-1-(4-fluorophenyl)-4α-methyl-1,4,4α,5,6,7-hexahydrocyclopenta[f]indazol-5-yl]methyl}amino)sulfonyl]phenyl}acetamide], the “GITAR > GRAMM % SEP” value is recorded as 36.0% and the EC50 was determined as 1010 nM. The Emax under setting [1] was found to be 49%. Further, the Emax under setting [2] is more than 5%.
Regarding `Cc1nn(C)c(Cl)c1S(=O)(=O)N(CC1CC1)C[C@H]1CCC2=Cc3c(cnn3-c3ccc(F)cc3)C[C@@]21C` [Example 7], the “GITAR > GRAMM % SEP” value is listed as 19.7% and the EC50 was 389 nM. The Emax under setting [1] was 56%. The Emax under setting [2] is more than 5%.
Turning to `CN1CCOc2cc(S(=O)(=O)N(CC3CC3)C[C@H]3CCC4=Cc5c(cnn5-c5ccc(F)cc5)C[C@@]43C)ccc21` [Example 8, N-(cyclopropylmethyl)-N-{[(4αR,5S)-1-(4-fluorophenyl)-4α-methyl-1,4,4α,5,6,7-hexahydrocyclopenta[f]indazol-5-yl]methyl}-4-methyl-3,4-dihydro-2H-1,4-benzoxazine-7-sulfonamide], the “GITAR > GRAMM % SEP” value is on record as 12.4% and the EC50 was 424 nM. Further, under setting [1], the Emax came to 17.4%. The Emax under setting [2] is more than 5%.
For the molecule `CCCCCc1ccc(S(=O)(=O)N(CC2CC2)C[C@H]2CCC3=Cc4c(cnn4-c4ccc(F)cc4)C[C@@]32C)cc1` [Example 9, N-(cyclopropylmethyl)-N-{[(4αR,5S)-1-(4-fluorophenyl)-4α-methyl-1,4,4α,5,6,7-hexahydrocyclopenta[f]indazol-5-yl]methyl}-4-pentylbenzenesulfonamide], the “GITAR > GRAMM % SEP” value amounted to 15.4% and the EC50 stood at 959 nM. For the same molecule, the Emax under setting [1] was found to be 28.1%. For the same molecule, the Emax under setting [2] was more than 5%.
As to `C[C@]12Cc3cnn(-c4ccc(F)cc4)c3C=C1CC[C@@H]2CN(CC1CC1)S(=O)(=O)c1ccc(-c2ccccc2)cc1` [Example 10, N-(cyclopropylmethyl)-N-{[(4αR,5S)-1-(4-fluorophenyl)-4α-methyl-1,4,4α,5,6,7-hexahydrocyclopenta[f]indazol-5-yl]methyl}biphenyl-4-sulfonamide], the “GITAR > GRAMM % SEP” value came out at 34.4% and the EC50 was 465 nM. The Emax under setting [1] came to 46.6%. Moreover, the Emax under setting [2] is more than 5%.
Taken in the same sequence, the figures for `Cc1noc(C)c1S(=O)(=O)N(CC1CC1)C[C@H]1CCC2=Cc3c(cnn3-c3ccc(F)cc3)C[C@@]21C` [Example 11, N-(cyclopropylmethyl)-N-{[(4αR,5S)-1-(4-fluorophenyl)-4α-methyl-1,4,4α,5,6,7-hexahydrocyclopenta[f]indazol-5-yl]methyl}-3,5-dimethylisoxazole-4-sulfonamide] were 23.1%, 206 nM, 89.1% and more than 5%.
With `CCCS(=O)(=O)N(CCOC)C[C@H]1CCC2=Cc3c(cnn3-c3ccc(F)cc3)C[C@@]21C` [Example 95, N-{[(4αR,5S)-1-(4-fluorophenyl)-4α-methyl-1,4,4α,5,6,7-hexahydrocyclopenta[f]indazol-5-yl]methyl}-N-(2-methoxyethyl)propane-1-sulfonamide], the “GITAR > GRAMM % SEP” value is reported as 2.7% and the EC50 was determined as 464 nM. For the same molecule, the Emax under setting [1] is 73.1%. Besides, the Emax under setting [2] was more than 5%.
